Assay results taken from ChEMBL document CHEMBL4706724, “Novel Substituted Benzothiazole Compounds for Treating Huntington's Disease” (ACS Med Chem Lett, 2021).

The compounds below were run against Huntingtin (Homo sapiens, UniProt P42858) (assay: Inhibition of Huntingtin protein (unknown origin) incubated for overnight in presence of MW1/MAB2166 monoclonal antibody by ELISA-based MSD electrochemiluminescence assay).
Chain of Huntingtin (P42858 whole entry): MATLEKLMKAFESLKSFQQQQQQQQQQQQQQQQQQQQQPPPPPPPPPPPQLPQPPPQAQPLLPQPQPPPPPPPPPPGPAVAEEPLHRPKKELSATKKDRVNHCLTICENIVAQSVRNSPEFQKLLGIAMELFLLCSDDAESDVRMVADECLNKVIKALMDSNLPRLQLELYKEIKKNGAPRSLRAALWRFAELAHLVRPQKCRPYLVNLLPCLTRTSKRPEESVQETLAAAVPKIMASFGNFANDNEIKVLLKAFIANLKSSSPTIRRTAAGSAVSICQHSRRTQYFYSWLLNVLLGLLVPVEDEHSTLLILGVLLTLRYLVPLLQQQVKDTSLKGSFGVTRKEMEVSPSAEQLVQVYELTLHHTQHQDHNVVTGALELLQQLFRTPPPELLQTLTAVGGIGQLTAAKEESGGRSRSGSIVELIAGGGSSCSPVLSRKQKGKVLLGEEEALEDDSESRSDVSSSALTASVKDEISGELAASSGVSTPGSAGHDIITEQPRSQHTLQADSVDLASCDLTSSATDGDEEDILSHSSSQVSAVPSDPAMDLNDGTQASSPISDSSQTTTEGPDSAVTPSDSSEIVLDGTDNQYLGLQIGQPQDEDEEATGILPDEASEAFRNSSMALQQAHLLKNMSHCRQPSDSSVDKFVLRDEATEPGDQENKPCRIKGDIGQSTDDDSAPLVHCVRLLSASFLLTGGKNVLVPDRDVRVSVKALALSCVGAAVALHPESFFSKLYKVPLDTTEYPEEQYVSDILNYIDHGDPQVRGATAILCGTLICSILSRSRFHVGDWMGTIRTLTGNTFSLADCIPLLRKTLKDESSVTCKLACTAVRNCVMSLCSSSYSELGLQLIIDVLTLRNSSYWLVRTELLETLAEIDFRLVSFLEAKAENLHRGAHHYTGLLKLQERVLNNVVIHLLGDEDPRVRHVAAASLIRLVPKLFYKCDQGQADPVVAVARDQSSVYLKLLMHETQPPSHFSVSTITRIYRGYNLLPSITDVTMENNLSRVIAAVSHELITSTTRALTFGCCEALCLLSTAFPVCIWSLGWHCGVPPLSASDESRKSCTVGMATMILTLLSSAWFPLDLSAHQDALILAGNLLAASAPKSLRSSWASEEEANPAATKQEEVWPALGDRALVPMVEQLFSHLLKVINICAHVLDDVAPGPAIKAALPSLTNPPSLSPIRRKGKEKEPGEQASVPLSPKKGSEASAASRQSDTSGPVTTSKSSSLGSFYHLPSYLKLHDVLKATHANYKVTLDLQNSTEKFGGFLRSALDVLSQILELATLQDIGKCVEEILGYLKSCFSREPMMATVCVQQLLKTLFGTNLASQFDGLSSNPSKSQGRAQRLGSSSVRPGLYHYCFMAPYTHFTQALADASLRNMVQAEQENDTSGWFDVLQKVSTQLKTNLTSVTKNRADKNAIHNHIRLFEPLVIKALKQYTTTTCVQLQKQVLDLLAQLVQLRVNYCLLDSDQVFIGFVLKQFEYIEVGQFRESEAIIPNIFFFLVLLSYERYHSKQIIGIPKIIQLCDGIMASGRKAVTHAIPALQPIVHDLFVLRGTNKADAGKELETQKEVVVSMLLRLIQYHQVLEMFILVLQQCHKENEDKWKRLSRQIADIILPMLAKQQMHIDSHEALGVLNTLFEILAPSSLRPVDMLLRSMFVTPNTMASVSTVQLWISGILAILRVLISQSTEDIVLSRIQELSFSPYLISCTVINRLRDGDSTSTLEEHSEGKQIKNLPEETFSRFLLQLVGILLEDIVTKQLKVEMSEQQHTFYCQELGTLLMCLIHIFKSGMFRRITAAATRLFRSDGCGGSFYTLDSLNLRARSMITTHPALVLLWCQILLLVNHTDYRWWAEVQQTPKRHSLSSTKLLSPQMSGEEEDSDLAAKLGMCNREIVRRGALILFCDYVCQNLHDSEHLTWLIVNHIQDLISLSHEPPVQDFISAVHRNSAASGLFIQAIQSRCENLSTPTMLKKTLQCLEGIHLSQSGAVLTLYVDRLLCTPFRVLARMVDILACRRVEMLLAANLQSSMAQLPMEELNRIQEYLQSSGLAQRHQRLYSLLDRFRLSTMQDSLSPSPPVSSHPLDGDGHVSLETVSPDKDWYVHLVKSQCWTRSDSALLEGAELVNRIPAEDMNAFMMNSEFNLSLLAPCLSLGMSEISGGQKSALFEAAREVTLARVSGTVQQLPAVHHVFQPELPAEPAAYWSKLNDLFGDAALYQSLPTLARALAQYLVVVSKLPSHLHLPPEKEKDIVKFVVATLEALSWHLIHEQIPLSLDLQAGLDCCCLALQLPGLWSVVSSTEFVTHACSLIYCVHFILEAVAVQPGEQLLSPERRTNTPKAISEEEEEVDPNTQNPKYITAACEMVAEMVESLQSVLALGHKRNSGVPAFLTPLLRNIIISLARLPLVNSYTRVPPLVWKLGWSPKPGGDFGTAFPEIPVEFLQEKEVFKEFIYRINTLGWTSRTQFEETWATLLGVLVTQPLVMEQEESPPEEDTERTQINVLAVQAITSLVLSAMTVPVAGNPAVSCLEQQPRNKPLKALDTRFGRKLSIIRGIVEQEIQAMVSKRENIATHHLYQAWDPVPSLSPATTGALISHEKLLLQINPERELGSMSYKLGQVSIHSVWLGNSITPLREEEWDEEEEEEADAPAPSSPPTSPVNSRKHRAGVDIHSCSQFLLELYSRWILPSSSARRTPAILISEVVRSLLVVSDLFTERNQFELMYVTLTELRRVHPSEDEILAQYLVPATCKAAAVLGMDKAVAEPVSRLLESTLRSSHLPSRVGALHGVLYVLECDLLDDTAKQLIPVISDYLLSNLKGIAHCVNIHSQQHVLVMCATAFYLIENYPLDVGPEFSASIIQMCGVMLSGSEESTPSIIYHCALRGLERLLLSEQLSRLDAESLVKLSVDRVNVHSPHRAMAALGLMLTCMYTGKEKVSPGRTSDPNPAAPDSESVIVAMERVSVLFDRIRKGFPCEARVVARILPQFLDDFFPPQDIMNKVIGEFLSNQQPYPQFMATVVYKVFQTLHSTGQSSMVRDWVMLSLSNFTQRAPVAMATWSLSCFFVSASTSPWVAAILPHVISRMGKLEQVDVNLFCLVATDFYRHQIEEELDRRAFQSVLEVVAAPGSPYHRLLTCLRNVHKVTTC

| IC50 [nM] | Structure (SMILES) |
| --- | --- |
| ≤ 100 | Cc1nc2ccc(-c3cc(F)c4nc(C5CCNCC5)sc4c3)cc2o1 |
| ≤ 100 | Oc1cc(-c2cn[nH]c2)ccc1-c1cc2sc(N3CCC34CCNCC4)nc2nn1 |
| ≤ 100 | CN1CC2(C1)CN(c1nc3nnc(-c4ccc(-c5c[nH]nc5F)cc4O)cc3s1)C2 |
| ≤ 100 | Cc1cn2nc(-c3cc(F)c4nc(OC5CCN(C)CC5)sc4c3)cc(C)c2n1 |
| ≤ 100 | CN(c1nc2nnc(-c3ccc(-c4c[nH]nc4F)cc3O)cc2s1)C1CCNC1 (stereo unspecified) |

| Structure (SMILES) | IC50 [nM] |
| --- | --- |
| CN(c1nc2nnc(-c3ccc(-c4cn[nH]c4)cc3O)cc2s1)C1CCN(C2CC2)CC1 | ≤ 100 |
